As a reminder, the IC50 is the point on the concentration scale where inhibition reaches its midpoint. A high value points to weaker potency in that assay. The term inhibition denotes the share of the control response that was lost under treatment. Higher therefore signals a strong effect.

Experiment [1] has as its system HeLa. Description: Antiproliferative activity against human HeLa cells after 48 hrs by MTT assay. It is filed as functional, cell-based. On the technique in general: Formazan colour is commonly taken as a measure of viable cells.
For experiment [2], the system named is MDA-MB-231. The experiment can be described thus: Antiproliferative activity against human MDA-MB-231 cells after 48 hrs by MTT assay. In kind it is functional, cell-based. The settings on record: MDA-MB-231, 48 h.
Experiment [3] concerns MCF7. The experiment can be described thus: Antiproliferative activity against human MCF7 cells after 48 hrs by MTT assay. In kind it is functional, cell-based. The settings on record: MCF7, 48 h.
Experiment [4] in a line: Antiproliferative activity against human PC3 cells after 48 hrs by MTT assay. The settings on record: PC-3, 48 h. It is filed as functional, cell-based.
Experiment [5] concerns MRC5. Description: Antiproliferative activity against human MRC5 cells after 48 hrs by MTT assay. In kind it is cell-based. The settings on record: MRC5, 48 h.
Experiment [6] has as its system MDA-MB-231. Description: Induction of apoptosis in human MDA-MB-231 cells at IC50 after 48 hrs by Giemsa staining-based light microscopy (reference value: 7%). In kind it is functional.
Experiment [7] relates to MCF7. Description: Antiproliferative activity against human MCF7 cells at 10 nM after 48 hrs by MTT assay. In kind it is functional. The following applies: MCF7, 48 h.
Experiment [8] concerns MDA-MB-231. Description: Antiproliferative activity against human MDA-MB-231 cells at 10 nM after 48 hrs by MTT assay. It is filed as functional. The settings on record: MDA-MB-231, 48 h.

Take `C[C@]1(CC#N)CC[C@@H]2c3ccc(O)cc3CC[C@H]2[C@@H]1CC#N`: the IC50 is 7.32 µM in experiment [1]; 3.96 µM in experiment [2]; 17 µM in experiment [3]; 11.2 µM in experiment [4]; greater than 100 µM in experiment [5]. Moreover, the Activity in experiment [6] amounted to 11.1%.
Consider `C[C@]1(CC#N)CC[C@H]2[C@@H](CC=C3C[C@@H](O)CC[C@@]32C)[C@@H]1CC#N`, for which the IC50 in experiment [1] was 2.15 µM; in experiment [2], 34.8 µM; in experiment [3], 30 µM; in experiment [4], 19.1 µM; in experiment [5], greater than 100 µM. Besides, in experiment [6], the Activity is listed as 18%.
Turning to `C[C@]1(CC#N)CC[C@H]2[C@@H](CCC3=CC(=O)CC[C@@]32C)[C@@H]1CC#N`, the IC50 in experiment [1] is 5.73 µM; in experiment [2] it was 15.5 µM; in experiment [3] it was 15 µM; in experiment [4] it was 8.27 µM; in experiment [5], greater than 100 µM. In experiment [6], this compound returned an Activity of 15.9%.
Take `C[C@]1(CC#N)CC[C@H]2[C@@H](CCC3=C(O)C(=O)CC[C@@]32C)[C@@H]1CC#N`: the IC50 in experiment [1] was 14.7 µM; in experiment [2], 39.6 µM; in experiment [3], 57 µM; in experiment [4] it was 8.69 µM; in experiment [5] it was greater than 100 µM. The compound also yielded an Activity in experiment [6] of 11%.
As for `C[C@]1(CC#N)CC[C@H]2[C@@H](CCC3=CC(=O)C=C[C@@]32C)[C@@H]1CC#N`, the IC50 is 12.5 µM in experiment [1]; 0.11 µM in experiment [2]; 0.52 µM in experiment [3]; 70.9 µM in experiment [4]; greater than 100 µM in experiment [5]. The inhibition at 0.01 µM in experiment [7] was 61%; in experiment [8] it was 69%. In experiment [6], the Activity turned out to be 14.1%.
Consider `COc1cccc2c1C(=O)c1c(O)c3c(c(O)c1C2=O)C[C@@](O)(C(=O)CO)C[C@@H]3O[C@H]1C[C@H](N)[C@H](O)[C@H](C)O1` [DOXORUBICIN], for which the IC50 amounted to 0.75 µM in experiment [3] and 95.6 µM in experiment [4]. This compound also had an Activity in experiment [6] of 11%.
For `C[C@]12CCC(=O)C(O)=C1CC[C@@H]1[C@@H]2CC[C@]2(C)C(=O)CC[C@@H]12` [FORMESTANE], the IC50 in experiment [1] was 1.9 µM; in experiment [2] it was 53.3 µM; in experiment [3] it was greater than 100 µM; in experiment [4], 45.6 µM; in experiment [5], greater than 100 µM. The Activity in experiment [6] is 11%.

The record behind these values is ChEMBL document CHEMBL3399944, “Synthesis and anticancer cell potential of steroidal 16,17-seco-16,17a-dinitriles: identification of a selective inhibitor of hormone-independent breast cancer cells” (Bioorg Med Chem, 2015).
